Holding throughout (type): biochemical
For test [1], the target named is T1, human BCO1 (Homo sapiens, UniProt Q9HAY6).
T1 sequence (Q9HAY6 1-547): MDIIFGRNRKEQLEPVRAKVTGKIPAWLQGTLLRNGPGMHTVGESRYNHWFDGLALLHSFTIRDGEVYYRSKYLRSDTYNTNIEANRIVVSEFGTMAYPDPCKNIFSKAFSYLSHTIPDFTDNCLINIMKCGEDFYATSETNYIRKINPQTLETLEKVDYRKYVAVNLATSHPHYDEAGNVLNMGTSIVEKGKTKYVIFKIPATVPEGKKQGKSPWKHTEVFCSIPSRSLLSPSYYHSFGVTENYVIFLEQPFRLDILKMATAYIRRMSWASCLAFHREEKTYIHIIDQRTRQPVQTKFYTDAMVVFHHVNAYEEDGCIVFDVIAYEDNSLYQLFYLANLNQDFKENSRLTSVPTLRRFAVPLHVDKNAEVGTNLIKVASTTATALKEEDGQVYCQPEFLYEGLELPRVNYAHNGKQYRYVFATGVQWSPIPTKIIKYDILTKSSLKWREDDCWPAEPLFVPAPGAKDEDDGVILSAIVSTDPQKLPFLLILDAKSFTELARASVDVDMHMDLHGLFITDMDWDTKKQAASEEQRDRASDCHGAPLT
The test can be described thus: HPLC product formation. The settings on record: DMN micelles, pH 7, 30 °C, 12 min.

Test [2] deals with T2, human BCO1 (Homo sapiens, UniProt Q9HAY6, W270F).
T2 sequence (Q9HAY6 1-547 W270F): T1 sequence (Q9HAY6 1-547) with W270F
In words: HPLC product formation with E. coli protein extract. The settings on record: DMN micelles, 30 °C; product all-trans-3-hydroxy-retinal.

Test [3] addresses T3, human BCO1 (Homo sapiens, UniProt Q9HAY6, L168G/W270F).
T3 sequence (Q9HAY6 1-547 L168G/W270F): T1 sequence (Q9HAY6 1-547) with L168G, W270F
The description is as above. As to conditions: DMN micelles, 30 °C; product all-trans-3-hydroxy-retinal.

For test [4], the target named is T1, human BCO1. The test can be described thus: inhibition of BC cleavage by E. coli crude extract, HPLC. The settings on record: 20 μM BC, 10 μM fenretinide, DMN micelles.

The source of these data is publication PMC6158786 (ACS chemical biology, 2018).

Structures are written as SMILES. Substitutions are numbered along the chain they refer to.

On to `CC1=C(/C=C/C(C)=C/C=C/C(C)=C/C=C/C=C(C)/C=C/C=C(C)/C=C/C2=C(C)CCCC2(C)C)C(C)(C)CCC1` [BC, β,β-carotene], for which the HPLC product formation result on human BCO1 [1] (product all-trans-retinal) is reported as “BCO1 catalyzed the production of all-trans-retinal from BC”.

Turning to `CC1=C(/C=C/C(C)=C/C=C/C(C)=C/C=C/C=C(C)/C=C/C=C(C)/C=C/C2=C(C)C[C@@H](O)CC2(C)C)C(C)(C)CCC1` [CX, 3R-β,β-Caroten-3-ol], the HPLC product formation result at human BCO1 [1] (products all-trans-retinal and 3-hydroxy-retinal) is “all-trans-retinal and all-trans-3-hydroxy-retinal resulting from CX cleavage displayed distinct retention times”.

With `CC1=C(/C=C/C(C)=C/C=C/C(C)=C/C=C/C=C(C)/C=C/C=C(C)/C=C/C2=C(C)C[C@@H](O)CC2(C)C)C(C)(C)C[C@H](O)C1` [ZEA, zeaxanthin], the “HPLC product formation with E. coli protein extract” value at human BCO1 [2] and at human BCO1 [3] was “mutant BCO1 variants readily converted zeaxanthin to all-trans-3-hydroxy-retinal in repeated assays” in each case.

Take `CC1=C(/C=C/C(C)=C/C=C/C(C)=C/C(=O)Nc2ccc(O)cc2)C(C)(C)CCC1` [fenretinide]: the “inhibition at 10 μM” value against human BCO1 [4] was “fenretinide, a known BCO1 inhibitor, efficiently inhibited the enzymatic activity of BCO1”.
